The inhibition is the percentage by which the read-out fell short of the control. One may read the Ki as the dissociation constant of the complex between target and ligand, obtained from inhibition or displacement. Read a high Ki as lower affinity. Broadly, the Km is the substrate concentration at which the rate is half of its maximum.

The values that follow come from patent US4169944A, “Cholesterol biosynthesis inhibitors” (University Patents, Inc., priority 1977, dated 1979).

Values joined by “and” are separate entries in the source; they are usually repeats but may differ in a detail not shown here. Identical values can stand only once. Like-named read-outs stand apart in the source and are kept apart here.

For data set [1], the target named is T1, HMG-CoA reductase (Rattus norvegicus, UniProt P51639).
T1 construct: from tissue; host or cells: rat liver microsomes, crude soluble extract
T1 sequence (P51639 1-887): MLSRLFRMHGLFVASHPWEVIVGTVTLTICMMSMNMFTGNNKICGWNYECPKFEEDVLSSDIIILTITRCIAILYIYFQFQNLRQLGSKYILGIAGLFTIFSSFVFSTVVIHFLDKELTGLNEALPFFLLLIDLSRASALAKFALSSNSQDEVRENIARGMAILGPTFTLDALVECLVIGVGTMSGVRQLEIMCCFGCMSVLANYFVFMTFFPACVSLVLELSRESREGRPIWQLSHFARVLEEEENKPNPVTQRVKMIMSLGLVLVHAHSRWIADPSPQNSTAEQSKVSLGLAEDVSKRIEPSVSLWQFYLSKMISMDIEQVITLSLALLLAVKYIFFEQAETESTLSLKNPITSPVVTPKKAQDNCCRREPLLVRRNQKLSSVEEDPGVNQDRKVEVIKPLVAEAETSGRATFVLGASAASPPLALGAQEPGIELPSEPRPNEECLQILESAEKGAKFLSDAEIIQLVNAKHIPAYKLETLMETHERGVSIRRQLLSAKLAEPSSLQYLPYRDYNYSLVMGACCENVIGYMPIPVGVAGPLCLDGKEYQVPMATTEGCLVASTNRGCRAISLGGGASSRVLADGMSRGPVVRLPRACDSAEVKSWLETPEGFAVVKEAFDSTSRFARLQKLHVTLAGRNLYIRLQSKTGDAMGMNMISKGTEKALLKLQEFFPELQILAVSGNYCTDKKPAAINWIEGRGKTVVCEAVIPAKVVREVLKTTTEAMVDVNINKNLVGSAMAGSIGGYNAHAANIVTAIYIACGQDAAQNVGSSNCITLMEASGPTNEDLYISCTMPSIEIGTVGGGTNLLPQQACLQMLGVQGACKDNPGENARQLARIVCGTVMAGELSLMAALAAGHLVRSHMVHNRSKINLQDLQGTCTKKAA
Nature of the data set: HMG-CoA reductase activity in crude soluble extract of rat liver microsomes. Conditions: for HMG-CoA reductase activity: 1.98 without inhibitor. The data set is classed as biochemical. As to the method:
Crude soluble extract from rat liver microsomes was prepared as previously described (2). HMG-CoA reductase activity and incubation conditions were conducted as previously described (2,3).
The relative potencies, as HMG-CoA reductase inhibitors, of trifluoro-HMG-CoA, trifluoro-HMG and trifluoro-HMG anhydride were investigated.
The inhibition of HMG-CoA reductase activity was measured in crude soluble extract from rat liver microsomes. Crude soluble extract from rat liver microsomes was prepared as previously described (2). HMG-CoA reductase activity and incubation conditions were conducted as previously described (2,3). The HMG-CoA reductase activity of the crude soluble extract in the absence of inhibitor was considered as 100% and activities measured in the presence of inhibitors were compared to this norm.
For orientation: Microsomes from liver hold many membrane-bound enzymes, among them those of drug oxidation.

A short description of data set [2]: Total body weights and liver weights of treated and control rats. Type of data set: in vivo, rat. The conditions noted are these: 0.2 mg per intraperitoneal injection, 6 days. The procedure:
(§1) Control rats received an injection of the vehicle (KHCO3 buffer) used for trifluoro-HMG-CoAinjection. Liver microsomes were isolated from these animals, and HMG-CoA reductase activity was measured. The control group average HMG-CoA reductase specific activity was 1.25 nmol mevalonate formed/min/mg protein. […] This difference was statistically significant at the p=0.005 level.
(§2) Twelve male rats of identical age were used. Six rats served as the control group; these rats received an intraperitoneal injection of KHCO3 buffer (0.2 ml) once per day (3:00 pm) for six days, except on the final day when additional injections were given at 10:00 pm and 6:00 am the following day. The drug-treated group of six rats received intraperitoneal injections of trifluoro-HMG-CoA (0.2 mg) in KHCO3 buffer (0.2 ml) on the same schedule as described above for the control group. The data were further analyzed by the t statistic between the mean for each group.

In data set [3] the target is T2, rat liver microsomal HMG-CoA reductase (Rattus norvegicus, UniProt P51639).
T2 construct: rat liver microsomal HMG-CoA reductase; from tissue; host or cells: rat liver microsomes
T2 sequence (P51639 1-887): T1 sequence (P51639 1-887)
Nature of the data set: Kinetics of inhibition of rat liver microsomal HMG-CoA reductase. The data set is classed as biochemical. As to the method: Table III summarizes the results of an experiment in which the kinetics of inhibition of rat liver microsomal HMG-CoA reductase by trifluoro-HMG-CoA were measured.
The velocity of mevalonate formation was first measured in the absence of trifluoro-HMG-CoA, varying the concentration of the substrate [3-^14 C]HMG-CoA. Then the same experiment was conducted in the presence of trifluoro-HMG-CoA (600 μM). The data were analyzed by means of an Eadie-Hofstee plot.

The target of data set [4] is T1, HMG-CoA reductase. Kind of data set: Liver microsomal HMG-CoA reductase activity in rats treated with trifluoro-HMG-CoA. The conditions noted are these: 0.2 mg per intraperitoneal injection, 6 days. The data set is classed as in vivo. The procedure:
as §1, §2

In data set [5] the target is T1, HMG-CoA reductase. Kind of data set: Inhibition of purified HMG-CoA reductase. Type of data set: biochemical. The conditions noted are these: 1.1 mM, purified enzyme. As to the method:
Hmg-coA reductase was purified from rat liver microsomes as previously described (2). HMG-CoA reductase activity assay and incubation conditions were conducted as previously described (2,3).

Data set [6] relates to incorporation of [1-^14 C] acetate into cholesterol (nonsaponifiable extract) in intact rat liver cells. Nature of the data set: Incorporation of [1-^14 C] acetate into cholesterol (nonsaponifiable extract) in intact liver cells. Type of data set: cell-based. As to the method: Duplicate samples contained 3.7 ml of hepatocyte suspension and 0.28 ml of saturated KHCO3 (pH […]) which contained varying final concentrations (0, 0.01, 0.10 or 1.0 mM) of trifluoro-HMG-CoA. Preincubation was conducted for 60 minutes. 10 μCi of [1-^14 C] sodium acetate, dissolved in Krebs Ringer bicarbonate buffer, was then added to each sample. Incubation was conducted for 120 minutes in a Dubnoff shaker. Saponification and extraction were conducted as previously described (4).

Substrate in data set [7]: CC(O)(CC(=O)O)CC(=O)SCCNC(=O)CCNC(=O)[C@H](O)C(C)(C)COP(=O)(O)OP(=O)(O)OC[C@H]1O[C@@H](n2cnc3c(N)ncnc32)[C@H](O)[C@@H]1OP(=O)(O)O
Nature of the data set: cells, lysate or membranes named. Conditions: other: absence of trifluoro-HMG-CoA; Eadie-Hofstee plot.

Where [8] appears, read: 1 mM, crude soluble extract, relative potencies (Table VI), read-out: Inhibition of HMG-CoA reductase activity.

On to `O=C(O)CC(O)(CC(=O)O)C(F)(F)F` [Trifluoro-HMG, 3-Hydroxy-3-Trifluoromethylglutaric Acid], for which, in data set [1] (setting [8]), the inhibition at 1000 µM turned out to be 11%.

Consider `CC(C)(COP(=O)(O)OP(=O)(O)OC[C@H]1O[C@@H](n2cnc3c(N)ncnc32)[C@H](O)[C@@H]1OP(=O)(O)O)[C@@H](O)C(=O)NCCC(=O)NCCSC(=O)CC(O)(CC(=O)O)C(F)(F)F` (stereo partly drawn) [Trifluoro-HMG-CoA, 3-Hydroxy-3-Trifluoromethylglutaryl-Coenzyme A], for which the “Total body weights and liver weights, treated versus control group” value in data set [2] was “not significantly different”. The same molecule registered a Ki in data set [3] (rat liver microsomes, substrate HMG-CoA, Eadie-Hofstee plot) of 54 µM. The Inhibition type entry in data set [3] (versus natural substrate HMG-CoA) is listed as “competitive inhibitor”. In data set [4] (average of six rats, control average 1.25, p=0.005), the “HMG-CoA reductase specific activity, average of treated rats” value is reported as 0.63 nmol mevalonate formed/min/mg protein. The “HMG-CoA reductase specific activity, individual treated rats” value in data set [4] (individual rat) is 0.42 nmol mevalonate formed/min/mg protein and 0.59 nmol mevalonate formed/min/mg protein and 0.83 nmol mevalonate formed/min/mg protein and 0.58 nmol mevalonate formed/min/mg protein and 0.95 nmol mevalonate formed/min/mg protein and 0.40 nmol mevalonate formed/min/mg protein. The molecule further returned an inhibition at 1100 µM in data set [5] of 73%. Further, in data set [5] (931.9 without inhibitor), the “HMG-CoA reductase specific activity” value was 253.5 nmol mevalonate formed/min/mg. For the same molecule, the inhibition at 10 µM turned out to be 7% in data set [1] (0.01 mM, crude soluble extract) and 34% in data set [6] (Rattus norvegicus, 0.01 mM, preincubation 60 minutes, incubation 120 minutes). In addition, the HMG-CoA reductase activity in data set [1] (0.01 mM, crude soluble extract) was 1.85 nmol mevalonate formed/min/ml; in data set [1] (0.10 mM, crude soluble extract), 1.29 nmol mevalonate formed/min/ml; in data set [1] (1.00 mM, crude soluble extract), 0.44 nmol mevalonate formed/min/ml. Besides, the inhibition at 100 µM was found to be 35% in data set [1] (0.10 mM, crude soluble extract) and 67% in data set [6] (Rattus norvegicus, 0.10 mM, preincubation 60 minutes, incubation 120 minutes). Also, the “Relative potency versus the free acid [3-hydroxy-3-trifluoromethylglutaric acid]” value in data set [1] (1 mM, crude soluble extract) is on record as “substantially more potent inhibitor than the free acid”. Moreover, the inhibition at 1000 µM in data set [1] (1.00 mM, crude soluble extract (Table I), read-out: Inhibition) was 78%; in data set [1] (setting [8]), 78%; in data set [6] (Rattus norvegicus, 1.00 mM, preincubation 60 minutes, incubation 120 minutes), 88%. The “Inhibition (in words)” value in data set [1] (0.1 and 1.0 mM, crude soluble extract) is “significant inhibition”. In data set [6] (Rattus norvegicus, calculated from the Table IV experiment, intact liver cells, read-out: Concentration for 50% inhibition of cholesterol formation), the IC50 is ~40 µM. Moreover, the “Inhibition of cholesterol formation (in words)” value in data set [6] (concentrations as low as 0.01 mM) is recorded as “significant inhibition of cholesterol formation”.

As to `O=C1CC(O)(C(F)(F)F)CC(=O)O1` [Trifluoro-HMG-anhydride, 3-Hydroxy-3-Trifluoromethylglutaric Anhydride], the inhibition at 1000 µM in data set [1] (setting [8]) came out at 27%.

B1: rat liver microsomal HMG-CoA reductase (Rattus norvegicus) (protein)
chain: T1 sequence (P51639 1-887)
Turning to B1, the Michaelis-Menten constant (Km) in data set [7] is 34.5 µM.
